Measurements taken from PMC7038240 (Antimicrobial Agents and Chemotherapy, 2020).
Read-outs that look alike come from different tables or passages of the source.

Tests used:
Format in all cases: cell-based
[1] = tested on: K. pneumoniae; assay: microbe, parasite or virus in culture; details: Klebsiella pneumoniae, read-out: MIC
Text: (§1) The antibacterial activity of cefepime-taniborbactam was compared to that of ceftazidime-avibactam, ceftolozane-tazobactam, and cefepime-tazobactam against a diverse panel of Enterobacterales and P. aeruginosa clinical isolates with defined β-lactamase subtypes (see Table S1 in the supplemental material). IMP-producing strains were excluded, as none of the BLI-protected cephalosporins inhibited IMP sufficiently to provide a clinically relevant rescue of the partner β-lactam, a characteristic also shared by approved BLI-protected carbapenems (meropenem-vaborbactam and imipenem-relebactam). […] The antibacterial activity of the cephalosporins alone was included to ascertain the level of potentiation by the partnered BLI. BLIs were tested at a fixed concentration of 4 μg/ml in all combinations except cefepime-tazobactam, where tazobactam was fixed at a concentration of 8 μg/ml ([38]). The collection comprised 143 clinical isolates collected from 2005 and 2018.
(§2) The in vitro antibacterial activity of the β-lactams alone or in combination with the BLIs was determined in cation-adjusted Mueller-Hinton broth (CAMHB) microdilution assays according to CLSI recommendations ([51]). […]. The inocula for the broth microdilution assays were prepared by the broth culture method ([51]). […]

[2] = tested on: S. paratyphi; assay: microbe, parasite or virus in culture; details: Salmonella enterica, strain 527, AmpC/TEM-1
Text: as §1, §2

[3] = tested on: S. typhi; assay: microbe, parasite or virus in culture; details: Salmonella enterica, strain 26A, AmpC/TEM-1
Text: as §1, §2

[4] = tested on: K. aerogenes; assay: microbe, parasite or virus in culture; details: Klebsiella aerogenes
Text: as §1, §2

[5] = tested on: K. oxytoca; assay: microbe, parasite or virus in culture; details: Klebsiella oxytoca
Text: as §1, §2

[6] = tested on: S. marcescens; assay: microbe, parasite or virus in culture; details: Serratia marcescens
Text: as §1, §2

[7] = tested on: E. coli; assay: microbe, parasite or virus in culture
Text: as §1, §2

[8] = tested on: M. morgannii; assay: organism not typed; details: strain 769909; OXA-48
Text: as §1, §2

Measured: MIC

CC(C)(O/N=C(\C(=O)N[C@@H]1C(=O)N2C(C(=O)[O-])=C(C[n+]3ccccc3)CS[C@H]12)c1csc(N)n1)C(=O)O [CAZ]
128 µg/mL: [1]; strain ESBL 10, SHV-12/TEM-1 | [1]; strain KIRK, OXA-162 | [4]; strain 110099, AmpC/SHV-12 | [5]; strain 134943, CMY-2/TEM-1, read-out: MIC | [6]; strain 192476, AmpC/TEM-1/SHV-5 | [6]; strain 192478, AmpC/SHV-12/TEM-1 | [7]; Escherichia coli, strain 873435, CTX-M-15, read-out: MIC | [7]; Escherichia coli, strain 1275635, VIM-23, read-out: MIC | [7]; Escherichia coli, strain ESBL 5, CTX-M-15/TEM-1, read-out: MIC
4 µg/mL: [7]; Escherichia coli, strain 890500, TEM-1/CTX-M-14, read-out: MIC
32 µg/mL: [1]; strain SI-F100, SHV-5/TEM-1/CMY-2 | [4]; strain 73546, AmpC | [4]; strain 111707, AmpC/TEM-1 | [7]; Escherichia coli, strain 1924, TEM-12, read-out: MIC | [7]; Escherichia coli, strain 878358, TEM-1/CTX-M, read-out: MIC | [7]; Escherichia coli, strain SI-V502, TEM-29/CTX-M-15, read-out: MIC
64 µg/mL: [1]; strain 873460, SHV-30/CTX-M-15 | [1]; strain DOV, OXA-48 | [1]; strain SI-C05, OXA-48 | [3] | [6]; strain 134434, AmpC/SHV-12/TEM-1 | [6]; strain 218073, AmpC/SHV-7/TEM-1 | [7] | [7]; Escherichia coli, strain 469, AmpC/SHV-12/TEM-1, read-out: MIC | [7]; Escherichia coli, strain 664507, OXA-48, read-out: MIC | [7]; Escherichia coli, strain 664516, OXA-48, read-out: MIC | [7]; Escherichia coli, strain 664520, OXA-48, read-out: MIC | [7]; Escherichia coli, strain 664522, OXA-48, read-out: MIC | [7]; Escherichia coli, strain 664523, OXA-48, read-out: MIC | [7]; Escherichia coli, strain EC1552 2A, AmpC/CMY-2/TEM-1, CTX-M-15, read-out: MIC | [7]; Escherichia coli, strain SI-PO26, AmpC/CMY-2/TEM-1, read-out: MIC
0.5 µg/mL: [7]; Escherichia coli, strain VER, OXA-48, read-out: MIC
≥ 256 µg/mL: [1]; strain 874328, SHV-11/CTX-M-15/NDM-1 | [1]; strain 882956, SHV-31/DHA-1/VIM-1 | [1]; strain 890066, SHV-33/TEM-33/CTX-M-15/IMP-1 | [1]; strain 892694, SHV-12/TEM-1/CTX-M-15/OXA-48/ACT | [1]; strain 919877, SHV-OSBL/VIM-1 | [1]; strain 1104864, SHV-OSBL(b)/VIM-1 | [1]; strain 1104866, SHV-OSBL(b)/VIM-1 | [1]; strain 1280442, SHV-OSBL(b)/VIM-1 | [1]; strain CDC-0049, NDM | [1]; strain CDC-0139, NDM-1 | [1]; strain CDC-0145, NDM | [1]; strain CDC-0148, NDM | [1]; strain CDC-0152, NDM | [1]; strain ESBL8 #1, TEM-1/SHV-12 | [5] | [7]; Escherichia coli, strain 1459453, NDM-7, read-out: MIC | [7]; Escherichia coli, strain CDC-0069, NDM, read-out: MIC | [7]; Escherichia coli, strain CDC-0149, NDM, read-out: MIC | [7]; Escherichia coli, strain SI-M004, SHV-2/GES-12, read-out: MIC
2 µg/mL: [8]
8 µg/mL: [2] | [7]; Escherichia coli, strain 875627, CTX-M-27, read-out: MIC | [7]; Escherichia coli, strain SI-LP377, CTX-M-2, read-out: MIC
